Measured values reported in patent US6620813B1, “Hydroxamate derivatives of non-steroidal anti-inflammatory drugs” (Medinox, Inc., priority 2002, dated 2003).
Entries after “also recorded” stand apart in the source; their conditions may differ.

Assays:
Male Sprague-Dawley rats [1] = assay: Gastropathy model: total gastric lesions after a single oral dose; format: in vivo, rat
Description: Rats were fasted for 18 hours prior to the study. […] Drugs were administered orally as a single dose in the morning and water removed. Two and one-half hours after dosing, rats were injected with 1 ml of 10 mg/ml Evans Blue solution and sacrificed 30 minutes later. Stomachs were removed, placed in weigh boats containing cold PBS, and re-coded with letters to blind the observer. Stomachs were then opened along the greater curvature, any contents removed and then placed flat with the lumen facing up to score blue-stained lesions for gastric toxicity according to the following criteria: First, the number of small rounded lesions were counted followed by measurement of total length of linear lesions of greater than or equal to 2 mm. The two numbers obtained (round lesion number and linear length) were added together to give a total gastropathy score expressed as Total Gastric Lesions.

Male Sprague-Dawley rats [2] = assay: Enteropathy model: intestinal erosions and ulcers after oral dosing; details: diclofenac vs equimolar compound 54, vehicle PEG, FIG. 1
Description: Enteropathy: Male Sprague-Dawley rats (150-174 g) were obtained from Harlan. Animals were allowed to acclimatize to the facility for a minimum of 3 days and provided with food and water ad libitium. […] Drugs were administered orally either as a single dose (late morning) or twice daily between 8:00-10:00 and 4:00-5:00 beginning with a morning dose for a total of three days. Groups contained 6-8 animals per treatment. On the fourth day each rat was injected intravenously with 1 ml of a 10 mg/ml solution of Evan's Blue to stain the damaged blood vessels in intestinal erosions and ulcers. Animals were sacrificed 10 to 20 minutes after administration of Evan's Blue. The small intestine was then removed from each rat and placed in a large weigh boat in cold PBS, stored briefly in a refrigerator until boats were re-coded to blind the observer. Each intestinal segment was then opened longitudinally and, using a fiber optic light, scored for erosions and ulceration according to the following criteria:
After Evan's Blue injection, intestinal lesions are seen as shallow lesions that are moderately stained around the edge, but with little to no staining in the middle. The depth of an erosion is sometimes only detectable when the edge of the tissue is lifted to reflect light at a different angle. Erosions are usually small and round or oval, but are sometimes as much as 1-2 mm wide, and as long as 1-2 cm, running along the area of mesenteric attachment. When erosions are elongated, the length is measured in mm and divided by 2; otherwise, the erosions are merely counted individually. Note that some areas of intestinal tissue stain blue, but are not erosions. These tend to be near the mesenteric membrane attachment sites and may represent areas of increased permeability that have not progressed to the extent that cell loss has occurred.
Ulcers: An ulcer is a deep lesion penetrating the muscularis mucosa. It is usually thickened and inflamed. After Evan's Blue injection, ulcers present several different types of appearance. […] All ulcers are quantified by measuring their long dimensions in mm.

Male Lewis rats = assay: Adjuvant-induced arthritis: paw volume; format: in vivo, rat; details: oral daily on days 8-15, day 15, equimolar doses, FIG. 3

less gastric lesion (total length) than an equimolar dose of diclofenac (Male Sprague-Dawley rats [1]; rats, oral single dose, relative to equimolar diclofenac, FIG. 2) [%]	SMILES	gastric lesion formation compared with Diclofenac (Male Sprague-Dawley rats [1]; rat model of gastropathy, equivalent doses)	total length of intestinal ulcers (ulcerogenic effect / ulcer formation) (Male Sprague-Dawley rats [2])	inhibition of paw volume increase in the uninjected feet (anti-inflammatory activity) (Male Lewis rats)
73	Cc1csc(=S)n1OC(=O)Cc1ccccc1Nc1c(Cl)cccc1Cl [Compound 54]	significantly less gastric lesion formation	significantly less; also recorded: no ulcerogenic effect	equivalent efficacy to equimolar doses of Diclofenac
	O=C(O)Cc1ccccc1Nc1c(Cl)cccc1Cl [Diclofenac, diclofenac, reference compound]		substantial ulceration	
